Data from BindingDB's records for doi:10.1021/jm00037a006 (Abbott Laboratories, 1994).
Square brackets hold non-standard residues; d marks the D form. Peptide text beside a SMILES is read from it. * marks the point of attachment. Acryloyl(3-(3-pyridyl),E) = O=C(/C=C/c1cccnc1)*; NMeF = CN[C@@H](Cc1ccccc1)C(=O)O; NMeD = CN[C@@H](CC(=O)O)C(=O)O; Boc = CC(C)(C)OC(=O)*

Molecular target: Gastrin/cholecystokinin type B receptor (Cavia porcellus)
Assay: In vitro binding for half maximal inhibition of [125I]- cholecystokinin type B receptor in guinea pig cortex

CN(C(=O)[C@H](CCCCNC(=O)/C=C/c1cccnc1)NC(=O)[C@H](Cc1c[nH]c2ccccc12)NC(=O)OC(C)(C)C)[C@@H](CC(=O)O)C(=O)N(C)[C@@H](Cc1ccccc1)C(N)=O [(S)-3-{[(S)-2-[2-tert-Butoxycarbonylamino-3-(1H-indol-3-yl)-propionylamino]-6-((E)-3-pyridin-3-yl-acryloylamino)-hexanoyl]-methyl-amino}-N-((S)-1-carbamoyl-2-phenyl-ethyl)-N-methyl-succinamic acid] (Boc-WK(Acryloyl(3-(3-pyridyl),E))[NMeD][NMeF]-NH2)
IC50: 22.7 µM
